The record followed here is BindingDB's records for doi:10.1021/cb400468c (Massachusetts Institute of Technology, 2013).

Each structure is given as a SMILES string.

Assay [1] addresses HIV WT-A pol protein (wild-type clade A) (Human immunodeficiency virus 1, UniProt P12497). As to the kind of experiment: Drug Susceptibility Assay. As for the experimental part:
(§1) Drug susceptibility assays were carried out by Monogram Bioscience against wild-type HIV-1 control and patient-derived strains of wild-type HIV-1 from clades A, B, and C, and two multi-drug-resistant HIV-1 variants.

A further assay deals with MDR1 (Human immunodeficiency virus, UniProt P12497). Put plainly: Drug Susceptibility Assay. On the procedure: as §1
For a further assay, the target named is MDRC4 (Human immunodeficiency virus, UniProt P12497). Put plainly: Drug Susceptibility Assay. On the procedure: as §1
The target of assay [2] is T1, Gag-Pol polyprotein [489-892,N526H,R530K,V566I,I582L,V648I,Q690K,I723V,C750S,T788A,Q795E,T874A,V881I,P882Q] (Human immunodeficiency virus, UniProt P12497, C750S/I582L/I723V/N526H/P882Q/Q690K/Q795E/R530K/T788A/T874A/V566I/V648I/V881I).
T1 construct: 489-892
Put plainly: Drug Susceptibility Assay. As for the experimental part:
as §1

In assay [3] the target is HIV WT-C pol protein (wild-type clade C) (Human immunodeficiency virus, UniProt P12497). Put plainly: Drug Susceptibility Assay. As for the experimental part:
as §1

Assay [4] deals with T2, Gag-Pol polyprotein [489-892] (Human immunodeficiency virus, UniProt P12497).
T2 construct: 489-892
As to the kind of experiment: Drug Susceptibility Assay. On the procedure: as §1

In assay [5] the target is T3, Gag-Pol polyprotein [484-582,I497V,V499I,E519D,R541K,D544E,Q553K,A555V,G557S,I568V,L574M,L573M] (Human immunodeficiency virus, UniProt Q9QBY3, A555V/D544E/E519D/G557S/I497V/I568V/L573M/L574M/Q553K/R541K/V499I).
T3 construct: 484-582
As to the kind of experiment: Inhibition Assay. On the procedure:
(§2) HIV protease inhibitor activities were determined by fluorescence resonance energy transfer (FRET) method. Protease substrate, Arg-Glu-(EDANS)-Ser-Gln-Asn-Tyr-Pro-Ile-Val-Gln-Lys(DABCYL)-Arg, was labeled with the energy transfer donor (EDANS) and acceptor (DABCYL) dyes at its two ends to perform FRET. Fluorescence measurements were carried out on an EnVision plate reader (PerkinElmer).

For another assay, the target named is HIV-1 protease (Human immunodeficiency virus, UniProt O90785). Put plainly: Inhibition Assay. As for the experimental part:
as §2

Assay [6] deals with T4, Gag-Pol polyprotein [484-582,I494L,I497V,V499I,E519D,I534V,R541K,D544E,Q553K,A555V,L573M] (Human immunodeficiency virus, UniProt Q9QBY3, A555V/D544E/E519D/I494L/I497V/I534V/L573M/Q553K/R541K/V499I).
T4 construct: 484-582
As to the kind of experiment: Inhibition Assay. On the procedure: as §2

The target in assay [7] is T5, Gag-Pol polyprotein [484-582,I497V,V499I,E519D,G532V,I538V,R541K,D544E,Q553K,V566A,L573M] (Human immunodeficiency virus, UniProt Q9QBY3, D544E/E519D/G532V/I497V/I538V/L573M/Q553K/R541K/V499I/V566A).
T5 construct: 484-582
Put plainly: Inhibition Assay. As for the experimental part: as §2

The target of assay [8] is T6, Gag-Pol polyprotein [484-582,I494L,I497V,V499I,D514N,E519D,R541K,D544E,Q553K,N572D,L573M] (Human immunodeficiency virus, UniProt Q9QBY3, D514N/D544E/E519D/I494L/I497V/L573M/N572D/Q553K/R541K/V499I).
T6 construct: 484-582
Put plainly: Inhibition Assay. On the procedure:
as §2

A word on the EC50: it is the concentration needed to bring the measured effect to its halfway point. A lower EC50 goes with greater potency. As usually defined, the Ki is a measure of affinity in units of concentration, obtained from inhibition or displacement. Lower therefore signals a stronger hold on the target. Take `CC[C@H](C)CN(C[C@@H](O)[C@H](Cc1ccccc1)NC(=O)C(NC(C)=O)[C@@H](C)CC)S(=O)(=O)c1ccc2ncsc2c1` (stereo partly drawn) [(2S,3S)-2-(Acetylamino)-N-[(1S,2R)-3-[(6-benzothiazolylsulfonyl)[(2S)-2-methylbutyl]amino]-2-hydroxy-1-(phenylmethyl)propyl]-3-methyl-pentanamide (AG-23)]: the EC50 was determined as 2.3 nM in assay [1]; 7.2 nM on MDR1; 8.7 nM at MDRC4; 1.9 nM in assay [2]; 3.5 nM in assay [3]; 2.7 nM in assay [4]. Moreover, the Ki was found to be 0.048 nM in assay [5]; 0.021 nM at HIV-1 protease; 0.092 nM in [6]; 0.376 nM in assay [7]; 0.028 nM in assay [8].

For the compound `COc1ccc(S(=O)(=O)N(CCCc2ccccc2)C[C@@H](O)[C@H](Cc2ccccc2)NC(=O)c2cccc(O)c2)cc1` [3-Hydroxy-N-[(1S,2R)-2-hydroxy-3-[[(4-methoxyphenyl)sulfonyl](3-phenylpropyl)amino]-1-(phenylmethyl)propyl]-benzamide (AF-78)], the Ki was found to be 23.8 nM in assay [5]; 0.437 nM on HIV-1 protease; 5.89 nM in assay [6]; 42.9 nM in assay [7]; 2.54 nM in assay [8].

For the compound `O=C(N[C@@H](Cc1ccccc1)[C@H](O)CN(CC1CCCCC1)S(=O)(=O)c1ccc2ncsc2c1)c1cccc(O)c1` [N-[(1S,2R)-3-[(6-Benzothiazolylsulfonyl)(cyclohexylmethyl)amino]-2-hydroxy-1-(phenylmethyl)propyl]-3-hydroxy-benzamide (AF-72)], the EC50 came out at 48.6 nM in assay [1]; 99.1 nM on MDR1; 165 nM on MDRC4; 37.9 nM in assay [2]; 94.6 nM in assay [3]; 63.7 nM in assay [4]. Further, the Ki stood at 2.75 nM in [5]; 0.129 nM at HIV-1 protease; 4.82 nM in [6]; 1.33 nM in assay [7]; 0.383 nM in [8].

As to `COc1ccc(S(=O)(=O)N(CC2CCCCC2)C[C@@H](O)[C@H](Cc2ccccc2)NC(=O)c2cccc(O)c2)cc1` [N-[(1S,2R)-3-[(Cyclohexylmethyl)[(4-methoxyphenyl)sulfonyl]amino]-2-hydroxy-1-(phenylmethyl)propyl]-3-hydroxy-benzamide (AF-77)], the EC50 in assay [1] was determined as 38.4 nM; at MDR1, 86.9 nM; at MDRC4 it was 105 nM; in assay [2], 22.4 nM; in [3] it was 65.7 nM; in assay [4], 47.3 nM. Also, the Ki was determined as 2.47 nM in assay [5]; 0.546 nM on HIV-1 protease; 3.4 nM in [6]; 2.04 nM in assay [7]; 0.49 nM in assay [8].

Take `CC(C)CN(C[C@@H](O)[C@H](Cc1ccccc1)NC(=O)O[C@H]1CCOC1)S(=O)(=O)c1ccc(N)cc1` [VX-478]: the EC50 turned out to be 2.6 nM in assay [1]; 15.6 nM at MDR1; 17.5 nM at MDRC4; 1.8 nM in [2]; 3.7 nM in [3]; 3 nM in assay [4].

As for `CC[C@H](C)[C@H](NC(C)=O)C(=O)N[C@@H](Cc1ccccc1)[C@H](O)CN(CC(C)C)S(=O)(=O)c1ccc(OC)cc1` [(2S,3S)-2-(Acetylamino)-N-[(1S,2R)-2-hydroxy-3-[[(4-methoxyphenyl)sulfonyl](2-methylpropyl)amino]-1-(phenylmethyl)propyl]-3-methyl-pentanamide (AF-68)], the EC50 in assay [1] stood at 2.4 nM; at MDR1 it was 15.1 nM; on MDRC4, 15.4 nM; in assay [2], 1.6 nM; in assay [3], 3 nM; in [4] it was 3.5 nM. Besides, the Ki turned out to be 1.03 nM in [5]; 0.146 nM at HIV-1 protease; 0.144 nM in assay [6]; 0.819 nM in assay [7]; 0.049 nM in assay [8].

Regarding `O=C(N[C@@H](Cc1ccccc1)[C@H](O)CN(CCCc1ccccc1)S(=O)(=O)c1ccc2ncsc2c1)c1cccc(O)c1` [N-[(1S,2R)-3-[(6-Benzothiazolylsulfonyl)(3-phenylpropyl)amino]-2-hydroxy-1-(phenylmethyl)propyl]-3-hydroxy-benzamide (AF-69)], the Ki in [5] was determined as 9.96 nM; on HIV-1 protease, 0.07 nM; in [6], 2.27 nM; in [7], 19.2 nM; in assay [8] it was 2 nM.

In the case of `CC[C@H](C)CN(C[C@@H](O)[C@H](Cc1ccccc1)NC(=O)c1cccc(O)c1)S(=O)(=O)c1ccc(-c2ccno2)s1` [3-Hydroxy-N-[(1S,2R)-2-hydroxy-3-[[[5-(5-isoxazolyl)-2-thienyl]sulfonyl][(2S)-2-methylbutyl]amino]-1-(phenylmethyl)propyl]-benzamide (AF-71)], the Ki in assay [5] is 44.8 nM; on HIV-1 protease, 3.33 nM; in [6], 30 nM; in assay [7], 18.2 nM; in assay [8], 2.95 nM.
